From ChEMBL document CHEMBL5390223, “Strategies for the Discovery of Oxazolidinone Antibacterial Agents: Development and Future Perspectives” (J Med Chem, 2023) come the findings set out here.

In brackets after ≈: the same amount, converted by molar mass.

The test system of assay [1] is Mycobacterium tuberculosis variant bovis. Nature of the assay: Antimycobacterial activity against Mycobacterium tuberculosis H37Rv assessed as reduction in bacterial growth by MABA assay. The class given is functional. A general note: Alamar Blue is a resazurin reagent that responds to reducing activity.
Assay [2] shares this test system. Briefly: Antimycobacterial activity against Mycobacterium tuberculosis H37Rv assessed as reduction in bacterial cell growth. The class given is functional.

As to `CC(=O)NC[C@H]1CN(c2ccc(N3CCOCC3)c(F)c2)C(=O)O1` [LINEZOLID], the minimal inhibitory concentration (MIC) in assay [1] was 0.5 µg/mL (≈ 1.48 µM).

For `CC(=O)NC[C@H]1CN(c2ccc(N3CCSCC3)c(F)c2)C(=O)O1` [SUTEZOLID], the MIC in assay [2] was found to be 0.125 µg/mL (≈ 0.354 µM).

The term MIC denotes the least concentration at which growth counts as inhibited.
